The values below are quoted from earlier work in the CATMoS acute toxicity set (Mansouri et al. 2021).

The structures appear in SMILES notation. Several values for one entry are separate records, joined by “and”; a condition that tells them apart may be missing. Identical values can stand only once.

A short description of this data set: rat acute oral toxicity. Conditions: in vivo.
Broadly, the LD50 is the dose at which mortality reaches 50%. Regarding `CCc1ccc(C)[n+](C(C)CCC(C)(C)CC(C)(C)C)c1` (stereo unspecified), the median lethal dose (LD50) was 540 mg/kg. Turning to `NNc1nnc(NN)c2ccccc12`, the median lethal dose (LD50) was 350 mg/kg and 400 mg/kg. Consider `Cc1cccc(C#N)c1C`, for which the 50% lethal dose (LD50) was 3000 mg/kg. Consider `O=C(O)c1ccccc1Nc1c(Cl)cc(Cl)c2ccccc12`, for which the 50% lethal dose (LD50) is 8500 mg/kg. With `Oc1ccc(-c2ccccc2)cc1CN1CCOCC1`, the LD50 is 25 mg/kg. On to `Cc1cc(C)cc(C(=O)Cl)c1`, for which the LD50 was 3160 mg/kg. On to `CN(C)C1CCc2ccccc2C(Oc2ccc([N+](=O)[O-])cc2)C1` (stereo unspecified), for which the LD50 is 534 mg/kg. Consider `C1CN2CCN1CC2`, for which the median lethal dose (LD50) is 1700 mg/kg. For the compound `CCCC(=O)c1ccc2c(c1)N(CCCN(C)C)c1ccccc1S2`, the LD50 is 300 mg/kg. With `CCN(CC)P1(=S)OCc2cc([N+](=O)[O-])ccc2O1` (stereo unspecified), the LD50 was 150 mg/kg. Consider `Cc1cc(C(=O)c2ccccc2)ccc1N`, for which the median lethal dose (LD50) is 700 mg/kg. Turning to `CCCCNC(=O)n1c(NC(=O)OC)nc2ccccc21`, the LD50 is 10000 mg/kg. Consider `O=[N+]([O-])c1ccc(OP(=O)(CCl)c2ccccc2)cc1` (stereo unspecified), for which the median lethal dose (LD50) was 203 mg/kg. On to `CCCC(=O)CCC`, for which the median lethal dose (LD50) is 3730 mg/kg. Consider `CN(Sc1ccc(Cl)c(Cl)c1)C(=O)Oc1cccc2c1OC(C)(C)C2`, for which the LD50 is 25 mg/kg. For `COP(=S)(OC)SCn1nc(Cl)c(C)cc1=O`, the LD50 was 65 mg/kg. On to `COP(=S)(OC)Sc1ccc(Cl)cc1`, for which the 50% lethal dose (LD50) was 500 mg/kg. As to `CCCCOc1ccc(OCC(=O)N(CCN(CC)CC)c2cc(OCC)ccc2OCC)cc1`, the 50% lethal dose (LD50) is 2400 mg/kg.

On to `CCOC(=O)N(C)CC1CCN(c2nc(N)c3cc(OC)c(OC)cc3n2)CC1`, for which the LD50 was 660 mg/kg. Take `CCCCC(CC)COC(CBr)c1ccc(Cl)c(Cl)c1` (stereo unspecified): the LD50 was 250 mg/kg.

Turning to `C[N+](C)(N)CCBr`, the LD50 is 3200 mg/kg. For `O=CCC1CC2CC1C1CCCC21` (stereo unspecified), the LD50 is 500 mg/kg. Turning to `C[C@@H](NCCc1ccc(O)cc1)[C@@H](O)c1ccc(O)cc1` (racemic), the LD50 was 1840 mg/kg. On to `Cc1c(Cl)cc2[nH]c(C(F)(F)F)nc2c1[N+](=O)[O-]`, for which the 50% lethal dose (LD50) was 31.4 mg/kg. `Cc1[nH]c(=O)c(C#N)cc1-c1ccncc1`: the median lethal dose (LD50) was 91 mg/kg. For the compound `Cc1ccccc1C(=O)NC1=NCCS1`, the median lethal dose (LD50) is 912 mg/kg.

With `Cc1cc(Cl)ccc1NC(=S)N(C)C`, the LD50 is 2500 mg/kg. Turning to `CS(=O)(=O)F`, the LD50 was 2 mg/kg. Regarding `CCN(CC)CCSC(=O)N(c1ccccc1)c1ccccc1`, the LD50 is 370 mg/kg.

Turning to `C[C@H](CN1CCOCC1)C(C(=O)N1CCCC1)(c1ccccc1)c1ccccc1`, the LD50 is 71.8 mg/kg. `O=c1[nH]c2cc(Cl)c(Cl)cc2o1`: the LD50 is 700 mg/kg. For `CCCCCCCCCCCOC(=O)Cc1ccc(N(CCCl)CCCl)cc1`, the LD50 was 50 mg/kg.

As for `COc1ccc(C(=C(C#N)CCC(=O)O)c2ccc(OC)cc2)cc1`, the LD50 was 337 mg/kg. Consider `CC(O)C1CCCCC1` (stereo unspecified), for which the LD50 is 2100 mg/kg. For the compound `COc1cc([C@@H]2c3cc4c(cc3C(O[C@@H]3O[C@@H]5CO[C@@H](C)O[C@H]5[C@H](O)[C@H]3O)C3COC(=O)[C@@H]32)OCO4)cc(OC)c1O` (stereo partly specified), the LD50 was 1780 mg/kg. In the case of `COc1cc2nc(N3CCN(C(=O)c4ccco4)CC3)nc(N)c2cc1OC`, the LD50 is 1950 mg/kg.

Consider `CCN(CC)CCOc1ccccc1C(=O)CCc1ccccc1`, for which the 50% lethal dose (LD50) was 716 mg/kg.

Consider `CCOC(=S)SCC#N`, for which the LD50 was 210 mg/kg. `CC(C(=O)O)c1ccc2c(c1)[nH]c1ccc(Cl)cc12` (stereo unspecified): the LD50 was 74 mg/kg. On to `CCc1ccc(C(=O)c2ccccc2)c(C(=O)O)c1`, for which the LD50 was 4450 mg/kg. As for `CCCN(CCC)C(=O)C(CCC(=O)N1CCN(CCOC(=O)Cc2c(C)n(C(=O)c3ccc(Cl)cc3)c3ccc(OC)cc23)CC1)NC(=O)c1ccccc1` (stereo unspecified), the 50% lethal dose (LD50) was 315 mg/kg. Take `C=COC(=O)c1ccccc1`: the 50% lethal dose (LD50) was 3250 mg/kg.

On to `O=[N+]([O-])c1ccccc1O`, for which the 50% lethal dose (LD50) was 334 mg/kg. With `C=CCNC(=O)ON=C1SCOC1C` (stereo unspecified), the LD50 was 453 mg/kg.

For `CCOC(=S)SSC(=S)OCC`, the LD50 is 480 mg/kg. With `CCC(C)OC(CBr)c1cccc(Cl)c1` (stereo unspecified), the LD50 was 250 mg/kg. For `O=C(Cl)c1cccc(S(=O)(=O)Cl)c1`, the LD50 is 1780 mg/kg. For `C=CC(C)CCCC(C)(C)O` (stereo unspecified), the LD50 was 3600 mg/kg. On to `O=C(O)COc1ccc2ccccc2c1`, for which the median lethal dose (LD50) was 600 mg/kg.

Consider `CN(C)CCCN1c2ccccc2CCc2cc(O)ccc21`, for which the median lethal dose (LD50) is 2980 mg/kg. Turning to `O=P1(N(CCCl)CCCl)NCCCO1` (stereo unspecified), the median lethal dose (LD50) is 94 mg/kg. With `O=S(=O)(c1ccc(NC([C@H](O)[C@@H](O)[C@H](O)[C@H](O)CO)S(=O)(=O)O)cc1)c1ccc(NC([C@H](O)[C@@H](O)[C@H](O)[C@H](O)CO)S(=O)(=O)O)cc1` (stereo partly specified), the 50% lethal dose (LD50) was 3000 mg/kg. As to `CCCOc1ccc(C=CC(=S)OCC)cc1OC`, the median lethal dose (LD50) is 1010 mg/kg.

Take `CC(C)=CCC1C(=O)N(c2ccccc2)N(c2ccccc2)C1=O`: the LD50 is 1340 mg/kg. Take `CNC(=O)Oc1cccc2c1OC(C)(C)O2`: the median lethal dose (LD50) was 40 mg/kg. Regarding `c1cn[nH]c1`, the LD50 is 1010 mg/kg.

As for `CC(C)(C)c1cc([N+](=O)[O-])cc(C(C)(C)C)c1O`, the median lethal dose (LD50) is 250 mg/kg. Consider `NC(=S)Nc1cccc(Cl)c1`, for which the LD50 was 25 mg/kg. For `Cc1cccc(OC(C)C)c1N(C)C(=O)CCl`, the LD50 is 950 mg/kg. As to `COP(=O)(OC)OC(c1ccc(Cl)cc1)P(=O)(OC)OC` (stereo unspecified), the LD50 was 3200 mg/kg. On to `Clc1ccc(OCOc2ccc(Cl)cc2)cc1`, for which the LD50 was 5800 mg/kg.
